Laboratory results: article PMC12019328, “Discovery of an ApoE4-targeted small-molecule SirT1 enhancer for the treatment of Alzheimer’s disease” (Scientific Reports, 2025)

Test system: SirT1 protein in N2a-E4 cells
Assay: SirT1 protein levels in N2a-E4 cells (AlphaLISA)
Type: cell-based, murine
Procedure: Relative SirT1 mRNA and protein enhancement by racemate DDL-214 and enantiomers DDL-218 and − 219 was determined in murine neuroblastoma cells stably transfected with ApoE4 (N2a-E4)[25]. All test compounds in DMSO were prepared at 2x the final concentration in DMEM supplemented with 10% fetal bovine serum (FBS) and 1% pen-strep (PS) and 50 µL of each loaded into individual wells of a 96-well plate. Previously cultured N2a-E4 were then trypsinized, harvested, centrifuged, and counted; then 50 µL of cell suspension adjusted to 400 cells/µL was added to each well. The plate was then incubated at 37 °C, 5% CO2 for 48 h. Cells were treated with DDL-214, DDL-218, or DDL-219 at 5 µM final then incubated for 24 h. After incubation, the cells were lysed with 50 µL of ice-cold lysis buffer (0.4% SDS, 3.5% Triton X-100, 0.02% sodium deoxycholate, 28 mM TRIS pH 8) complemented with 1X final Halt™ Protease and Phosphatase Inhibitor Cocktail (Thermo Fisher catalog # 78442), placed on ice for 10 min and at -80 °C, followed by 3 freeze/thaw cycles.
An AlphaLISA comprising streptavidin donor beads (Revvity catalog # 6760002 S), biotinylated anti-SirT1 N-terminal antibody (monoclonal 19A7AB4, Abcam catalog # ab110304), and acceptor beads (Revvity catalog # 6772001) conjugated to the anti-SirT1 C-terminal antibody (monoclonal 1F3, Abcam catalog # ab104833) was used to determine SirT1 protein levels. […] The plates were read using an Envision plate reader.
Figure S3B. […] Compound treatment was done at 5 and 50 µM. SirT1 levels were measured by AlphaLISA followed and normalized to protein […]
Brain tissue was homogenized in PBS (pH 7.4) (1: 3 weight(mg)/volume(µL)) and the protein concentration of was determined using the Micro BCA™ Protein Assay Kit (Thermo Fisher Scientific, Cat#23235). […]
The % of the unbound drug (fu,bound) was calculated using the following equation: fu,bound = [normalized peak area in buffer side / normalized peak area in brain side] x 100 Liver Microsome Stability [t1/2 (min)] […]

SMILES | SirT1 protein levels (N2a-E4 cells, 5 µM, 24 h, vs DMSO control) | SirT1 increase over vehicle (50 uM in N2a-E4 cells)
CC(N)C(=O)OC(C)(C)Cc1ccncc1 (centres unmarked) [DDL-218] | greatest increase in SirT1 protein | –
C#Cc1ccc(CC(C)(C)NC(=O)[C@H](C)N)cc1 [DDL-220] | – | 30%
